In PMC8815882, “Screening the pandemic response box identified benzimidazole carbamates, Olorofim and ravuconazole as promising drug candidates for the treatment of eumycetoma” (PLoS Neglected Tropical Diseases, 2022) one finds activity and Percent fungal survival data, which are given here for 17 compounds.

Where two headings read alike, the source gives them in different places.

This experiment concerns M. mycetomatis genome strain MM55. In words: CLSI M38-A2 based in vitro susceptibility screening (XTT or resazurin), growth at fixed concentration. The class given is cell-based, Madurella mycetomatis. The conditions noted are these: Madurella mycetomatis; for Percent fungal survival at 100 µM: read-out: Percentage survival at 100um, 100 uM A (second replicate column).
[1] abbreviates: mean of three, M. mycetomatis MM55, read-out: Percentage survival at 25um, 25 uM mean.
[2] abbreviates: replicate A, M. mycetomatis MM55, read-out: Percentage survival at 25um, 25 um A.
Where [3] appears, read: replicate B, M. mycetomatis MM55, read-out: Percentage survival at 25um, 25 uM B.
Where [4] appears, read: replicate C, M. mycetomatis MM55, read-out: Percentage survival at 25um, 25 uM C.
Where [5] appears, read: mean of three, M. mycetomatis MM55, read-out: Percentage survival at 100um, 100 uM mean.
Where [6] appears, read: replicate 1, M. mycetomatis MM55, read-out: Percentage survival at 100um, 100 uM A (first replicate column).
[7] abbreviates: replicate 2, M. mycetomatis MM55.
The mark [8] stands for this setting: replicate 3, M. mycetomatis MM55, read-out: Percentage survival at 100um, 100 uM A (third replicate column).
The mark [9] stands for this setting: mean of three replicates, read-out: Percentage survival at 25um, 25 uM mean.
[10] abbreviates: replicate A, read-out: Percentage survival at 25um, 25 um A.
Setting [11] is: replicate B, read-out: Percentage survival at 25um, 25 uM B.
Setting [12] is: replicate C, read-out: Percentage survival at 25um, 25 uM C.
Setting [13] is: mean of three replicates, read-out: Percentage survival at 100um, 100 uM mean.
The mark [14] stands for this setting: replicate 1, read-out: Percentage survival at 100um, 100 uM A (first replicate column).
Where [15] appears, read: replicate 3, read-out: Percentage survival at 100um, 100 uM A (third replicate column).
Setting [16] is: mean of replicates, read-out: Percentage survival at 25um, 25 uM mean.
Where [17] appears, read: mean of replicates, read-out: Percentage survival at 100um, 100 uM mean.
The mark [18] stands for this setting: replicate 1, read-out: Percentage survival at 100um, 100 uM A.
Setting [19] is: replicate 2, read-out: Percentage survival at 100um, 100 uM A.
Setting [20] is: replicate 3, read-out: Percentage survival at 100um, 100 uM A.
Where [21] appears, read: first replicate column, read-out: Percentage survival at 100um, 100 uM A.
The mark [22] stands for this setting: second replicate column, read-out: Percentage survival at 100um, 100 uM A.
Setting [23] is: third replicate column, read-out: Percentage survival at 100um, 100 uM A.
[24] abbreviates: mean of replicates, MM55, read-out: Percentage survival at 25um, 25 uM mean.
[25] abbreviates: replicate A, MM55, read-out: Percentage survival at 25um, 25 um A.
[26] abbreviates: replicate B, MM55, read-out: Percentage survival at 25um, 25 uM B.
Where [27] appears, read: replicate C, MM55, read-out: Percentage survival at 25um, 25 uM C.
The mark [28] stands for this setting: mean of replicates, MM55, read-out: Percentage survival at 100um, 100 uM mean.
[29] abbreviates: replicate 1, MM55, read-out: Percentage survival at 100um, 100 uM A.
[30] abbreviates: replicate 2, MM55, read-out: Percentage survival at 100um, 100 uM A.
Where [31] appears, read: replicate 3, MM55, read-out: Percentage survival at 100um, 100 uM A.

Turning to `COc1ccc(NC(=O)CC2Sc3ncnn3C2=O)cc1` (stereo not shown) [MMV1483032], the activity at 25 µM under setting [1] was 78.4%, the activity at 25 µM under setting [2] was 82.6%, the activity at 25 µM under setting [3] was found to be 81.9% and the activity at 25 µM under setting [4] was 70.7%. The activity at 100 µM is 36% under setting [5], -1.84% under setting [6] and 108% under setting [8]. In addition, under setting [7], the Percent fungal survival at 100 µM is 1.55%.
As for `O=C(c1ccc(F)cc1)N1CCN2C(=O)c3ccccc3C12c1ccccc1` (stereo not shown) [MMV1165877], the activity at 25 µM runs as follows: under setting [9], 89.2%; under setting [10], 90%; under setting [11], 95.6%; under setting [12], 82.1%. The activity at 100 µM came out at 76.1% under setting [13], 85.4% under setting [14] and 71.2% under setting [15]. Besides, the Percent fungal survival at 100 µM (replicate 2) amounted to 71.7%.
Regarding `CC(C)n1cnc2c(NCc3ccccc3)nc(NCc3ccccc3)nc21` [MMV1579780], the activity at 25 µM by setting is: under setting [16], 62.7%; under setting [10], 64.2%; under setting [11], 61.7%; under setting [12], 62%. Besides, the activity at 100 µM amounted to 61% under setting [17], 60.4% under setting [18], 63.1% under setting [19] and 59.6% under setting [20].
In the case of `N#Cc1cc([N+](=O)[O-])ccc1Oc1ccccc1Cl` [MMV1580800], the activity at 25 µM runs as follows: under setting [9], 66.8%; under setting [10], 54.7%; under setting [11], 82.6%; under setting [12], 63.1%. For the same compound, the activity at 100 µM is, setting by setting: under setting [21], 3.13%; under setting [13], 19.4%; under setting [22], 3.43%; under setting [23], 51.7%.
On to `C=C(C)n1c(=O)n(Cc2ccccc2C)c2ccccc21` [MMV1579354], for which the activity at 25 µM under setting [1] was determined as 79.6%, the activity at 25 µM under setting [2] turned out to be 93.1%, the activity at 25 µM under setting [3] worked out at 79.3% and the activity at 25 µM under setting [4] amounted to 66.5%. Moreover, the activity at 100 µM under setting [5] was 9.54%, the activity at 100 µM under setting [6] is 2.4% and the activity at 100 µM under setting [8] was 4.84%. Further, under setting [7], the Percent fungal survival at 100 µM was 21.4%.
Turning to `O=C(/C=C/n1cnc(-c2cc(C(F)(F)F)cc(C(F)(F)F)c2)n1)NNc1cnccn1` [MMV1593517], the activity at 25 µM under setting [9] is 90.4%, the activity at 25 µM under setting [10] worked out at 63%, the activity at 25 µM under setting [11] worked out at 118% and the activity at 25 µM under setting [12] stood at 90.3%. For the same compound, the activity at 100 µM under setting [21] came out at 102%, the activity at 100 µM under setting [13] came to 102%, the activity at 100 µM under setting [22] worked out at 111% and the activity at 100 µM under setting [23] was found to be 95%.
Regarding `CCc1nc2ccccn2c1C(=O)NCc1ccccc1` [MMV1663457], the activity at 25 µM amounted to 64.2% under setting [1], 58% under setting [2], 69.7% under setting [3] and 64.8% under setting [4]. In addition, the activity at 100 µM amounted to 64.3% under setting [5], 52.2% under setting [6] and 86.6% under setting [8]. Under setting [7], the Percent fungal survival at 100 µM was 54%.
On to `CS(=O)(=O)c1ccc(Oc2ccc(Cl)cc2)cc1` [MMV1634404], for which the activity at 25 µM came out at 85.3% under setting [9], 90% under setting [10], 98% under setting [11] and 68% under setting [12]. The activity at 100 µM is, setting by setting: under setting [13], 50.7%; under setting [14], 44.2%; under setting [15], 59%. Moreover, the Percent fungal survival at 100 µM (replicate 2) worked out at 49%.
Consider `Nc1cccc(-c2nc(N)nc(NC3Cc4ccccc4C3)n2)c1` [MMV1581555], for which the activity at 25 µM was found to be 86% under setting [16], 98.9% under setting [10], 85.3% under setting [11] and 73.8% under setting [12]. Further, the activity at 100 µM is, setting by setting: under setting [17], 85.5%; under setting [18], 81.1%; under setting [19], 89%; under setting [20], 86.6%.
With `O=C(NCCN1CCCCC1)c1cccc(C(F)(F)F)c1` [MMV1633964], the activity at 25 µM under setting [9] is 86.8%, the activity at 25 µM under setting [10] was 87.8%, the activity at 25 µM under setting [11] is 90.2% and the activity at 25 µM under setting [12] came to 82.3%. Moreover, the activity at 100 µM came out at 77.6% under setting [21], 81.1% under setting [13], 90.5% under setting [22] and 75.1% under setting [23].
For the compound `O=C(Nc1ccccc1)N(Cc1cc(Br)ccc1O)c1ccc(F)cc1` [MMV1581552], the activity at 25 µM is 51.3% under setting [1], 32.5% under setting [2], 58.2% under setting [3] and 63.3% under setting [4]. For the same compound, the activity at 100 µM is 11.5% under setting [5], 1.56% under setting [6] and 24.3% under setting [8]. The Percent fungal survival at 100 µM under setting [7] amounted to 8.53%.
On to `O=C(/C=C\n1cnc(-c2cc(C(F)(F)F)cc(C(F)(F)F)c2)n1)NNc1ccccn1` [MMV1580493], for which the activity at 25 µM amounted to 67.9% under setting [16], 79.7% under setting [10], 83.9% under setting [11] and 40.3% under setting [12]. Further, the activity at 100 µM worked out at 77.3% under setting [17], 119% under setting [14] and 32.4% under setting [15]. Moreover, under “replicate 2”, the Percent fungal survival at 100 µM stood at 80%.
`CCc1cc(Nc2cc(=O)n(CCN3CCN(C(=O)c4ccccc4)CC3)c(=O)[nH]2)ccc1C` [MMV1634383]: the activity at 25 µM was determined as 84% under setting [16], 86.7% under setting [10], 79.7% under setting [11] and 85.7% under setting [12]. Also, the activity at 100 µM under setting [17] was determined as 88.4%, the activity at 100 µM under setting [18] stood at 93%, the activity at 100 µM under setting [19] turned out to be 83.3% and the activity at 100 µM under setting [20] is 89%.
Turning to `Cc1c[nH]c(=O)nc1NCc1ccccc1` [MMV1582489], the activity at 25 µM is, setting by setting: under setting [16], 93.3%; under setting [10], 97.9%; under setting [11], 91.7%; under setting [12], 90.3%. For the same compound, the activity at 100 µM is, setting by setting: under setting [17], 88.7%; under setting [18], 101%; under setting [19], 80.8%; under setting [20], 84.5%.
With `C[C@H]1COc2c(N3CCN(C)CC3)c(F)cc3c(=O)c(C(=O)O)cn1c23` [MMV687798], the activity at 25 µM is 96.2% under setting [24], 101% under setting [25], 105% under setting [26] and 82.9% under setting [27]. Moreover, the activity at 100 µM under setting [28] was 91.4%, the activity at 100 µM under setting [29] is 97.4%, the activity at 100 µM under setting [30] stood at 91.1% and the activity at 100 µM under setting [31] was 85.7%.
Regarding `Cc1[nH]c2ccccc2c1CCNCc1ccc(/C=C/C(=O)NO)cc1` [MMV010036], the activity at 25 µM by setting is: under setting [9], 90.9%; under setting [10], 98.2%; under setting [11], 95.9%; under setting [12], 78.7%. For the same compound, the activity at 100 µM by setting is: under setting [21], 85.9%; under setting [13], 77.1%; under setting [22], 69.6%; under setting [23], 75.6%.
In the case of `CC[C@H](NC(=O)[C@H](C)NC)C(=O)N1C[C@@H](O)C[C@H]1Cc1c(-c2[nH]c3cc(F)ccc3c2C[C@@H]2C[C@H](O)CN2C(=O)[C@H](CC)NC(=O)[C@H](C)NC)[nH]c2cc(F)ccc12` [MMV1557856], the activity at 25 µM reads like this: under setting [24], 83.4%; under setting [25], 88.1%; under setting [26], 92.5%; under setting [27], 69.7%. The activity at 100 µM by setting is: under setting [28], 68.8%; under setting [29], 72.6%; under setting [30], 66.6%; under setting [31], 67.1%.
